According to PMC3422259, “Additive Mixture Effects of Estrogenic Chemicals in Human Cell-Based Assays Can Be Influenced by Inclusion of Chemicals with Differing Effect Profiles” (PLoS ONE, 2012):
Entries after “also recorded” stand apart in the source; their conditions may differ. Read-outs that look alike come from different tables or passages of the source.

Legend:
[1] = tested on: MCF-7 cells; test: Modulation studies (ESCREEN only): effect of potential modulators on the response evoked by a reference mixture of estrogens (REFmix); type: cell-based, human; conditions: for Modulation of the REFmix effect (in words) / Concentration at which suppression of the ESCREEN response to REFmix began: ESCREEN; for Observed modulation: ESCREEN response to REFmix (Mixture 3d, ca. 50% effect), screening, one experiment; for Concentration at which suppression of the ESCREEN response to REFmix began: individual modulator screening
Source text: Modulation studies comprised screening of individual modulators in low power experiments accompanied by parallel testing of an equimolar mixture of all modulators. This combination of low power screening and mixture testing provides the opportunity to assess a high number of chemicals (16 in this case) without a prohibitive amount of experimental effort. In this case the effects of 16 modulators could be evaluated using a total of 19 experimental plates (16 for screening and 3 for mixture testing).
To normalize for small changes in the absolute value of the positive control and the control response to the selected REFmix concentration, the response evoked by the REFmix control on each plate was defined as the 50% effect and all modulator study results are normalized to that value.
A mixture of modulators (MODmix) was also tested and was composed with a fixed ratio of equimolar concentrations, since the activity of each modulator was not known at the time of designing the mixture.
In these modulator studies, we examined 16 single chemicals (listed in Table 7) and an equimolar mixture of all 16 components for their ability to modulate the effects of a reference mixture (REFmix) which contained 14 food additives and contaminants (Table 1, Mixture 3d). […] Single chemicals were tested individually in single experiments (screening) and then a mixture composed using a fixed ratio of equal molarities was subjected to repeated testing.
Figure 5 Results of modulation studies. […] Experimental results are shown as grey circles representing each replicate (duplicate testing within the assay) and obtained in three independent (A) or one (B–Q) experiment (s). Experimental results were normalized by setting the value observed for the REFmix alone, the concentration of which was selected to evoke a […] of ca. 50%, to 0.5. The positive control values (black circles, eight replicates per experimental plate, 25 nM estradiol) are indicated adjacent to the y-axis. […] A black line indicates a LOESS spline fit to the data (A–Q) and a grey line indicates linear regression fit to the data for individual modulators (B–Q). A vertical dotted line is drawn at a mixture concentration of 1.6 µM (A) or at the concentration of each modulator present at that mixture concentration (0.1 uM, B–Q). Visual inspection of the individual modulator results (B–Q) was used to identify possible modulation, i.e. when the experimental data appears to deviate from the linear regression, or when the linear regression is not horizontal, and when the magnitude of the modulation is outside the variation expected in the assay.

[2] = tested on: MCF-7 cells; test: Estrogenicity assay, mitogenic endpoint (ESCREEN); conditions: for Signs of estrogenicity (in words): chemical screened as potential modulator, tested alone; for Signs of estrogenicity: Active at concentration: ‘Active’ = positive signal clearly distinguishable from assay variability and noise
Procedure: The ESCREEN assay was performed using cloned MCF-7 cells (described in [6], gifted from A. Soto, Boston) and the established ESCREEN method was followed using an adapted 96-well format. Cells were cultured in DMEM (5% FCS). For experiments, cells were seeded in clear polystyrene 96 well plates at a density of 2,500 cells/well and allowed to attach for 24 hours before washing with rinse media (phenol red-free DMEM, no supplements). […] Test chemicals were dissolved in ethanol to give stock solutions of millimolar concentrations. Test and control solutions were diluted prior to application in dosing media (phenol red free DMEM, 10% charcoal-dextran stripped FCS). The final concentration of ethanol was 0.5% in test and control wells. […] At all stages, media removal from cells was carried out gently and in a controlled fashion by use of an electronic multichannel pipette set to the lowest speed possible. Controls were run as eight replicate wells per plate and compounds were tested in a dilution series comprising eight concentrations, each concentration tested in two replicate wells per plate. The plate layout was designed to reduce variation due to evaporation and spreading of test chemicals, and had been previously optimised in the laboratory. After application of test solutions, plates were incubated for 120 hours before fixation with 10% trichloroacetic acid and sulforhodamine B (SRB) staining to measure protein and allow the indirect quantification of cell number.
(§1) Experiments were performed on different days meaning that results for different dilution series and different batches of the test chemicals were obtained on different days. Each single chemical was tested in three or more independent experiments. Use of normalisation meant that data from different experiments could be reliably combined and compared, as discussed previously. Data was expressed relative to the positive control, rather than as fold change from the vehicle response, for two reasons.
(§2) Results from regression analysis for each test chemicals were used to predict the CA effect for fixed-ratio mixtures designed on 1) equi-effective concentrations (balanced design), 2) possible human serum levels (non-balanced design). The original mathematical formulation of CA that defines for a mixture composed of n components with concentration c1 of the first component, c2 of the second component, and cn for the n-th component a combination effect X is [drawing 1] (1) Here, ECX1, ECX1 …, ECXn are the concentrations of the individual components that on their own produce the same effect X as the mixture, [15] The quotients cn/ECXn are called toxic units and scale all compounds in the mixture relative to their toxicity. They can be interpreted as the contribution of the compound to the total mixture concentration that is expected to produce the mixture effect X. According to equation 1, a mixture effect for a pre-defined effect level X is described only implicitly. However, if the individual concentrations ci are expressed as relative fractions pi to the total mixture concentration ECxMix, then equation 1 can be re-arranged to [drawing 2] (2) which allows the direct calculation of the mixture concentration that is expected to produce the mixture effect X. To form a prediction curve, equation 2 is iterated through for various effect levels resulting in sets of effects and their associated predicted mixture concentration which are then plotted to produce a graph of the effect prediction.
Both equations 1 and 2 require knowledge of the concentration of each mixture component that on its own produces the effect magnitude under consideration. For this reason, these equations cannot be used for predicting mixture effects that exceed the maximal effect of the least efficacious component, because those effect concentrations cannot be defined.

[3] = tested on: T47D-KBluc cells; test: cells; conditions: ERLUX
Procedure: T47D-KBluc cells were obtained from the ATCC and the protocol established by the depositing authors was followed. Cells were routinely grown in RPMI media (with 10% foetal calf serum (FCS)). For seven days prior to experiments, cells were maintained in low estrogen conditions by the use of pre-assay media (RPMI, 10% charcoal-dextran stripped FCS, no antibiotics). For experiments, cells were seeded in white polystyrene 96 well plates at a density of 10,000 cells/well and allowed to attach for 24 hours before removal of media, and application of test chemicals. Test chemicals were dissolved in ethanol to give stock solutions of millimolar concentrations. Test and control solutions were obtained by dilution of ethanolic stocks in dosing media (phenol red-free RPMI, 5% charcoal-dextran stripped FCS, no antibiotics), and in all cases the final concentration of ethanol was 0.5%. The positive control was 1 nM estradiol. Positive and vehicle controls were run as eight replicate wells per plate, and compounds were tested in a dilution series comprising eight concentrations, each concentration tested in triplicate. As recommended by Wilson et al. two additional controls were also included on each plate: 1) vehicle control plus an antiestrogen, ICI 182,780 (1 µM), and 2) positive control plus ICI 182,780 (1 µM). […] A crude measure of toxicity was provided by comparing values for treatments that were not positive, with the value of the vehicle control. […] 24 hours after application of test and control solutions, a volume of Steady-Glo assay reagent (Promega) equal to the volume of culture media was added and plates were incubated for ten minutes, with shaking, to allow for cell lysis. Plates were then loaded into a plate reader (FLUOstar Optima, BMG Labtech) and incubated for a further ten minutes in the dark, followed by measurement of luminescence. To reduce variation, the temperature of the plate reader chamber was maintained at 27°C throughout.
as §1
Effect concentrations (ECx) were defined relative to the effects of the estradiol concentration used as the positive control, for example EC50 is the concentration producing an effect of 50% of the positive control (estradiol, 1 nM (ERLUX) or 25 nM (ESCREEN)).
as §2, with “implicitly.” for “implicitly. However, if the individual concentrations ci are expressed as relative fractions pi to the total mixture concentration ECxMix, then equation 1 can be re-arranged to [drawing 2] (2) which allows the direct calculation of the mixture concentration that is expected to produce the mixture effect X. To form a prediction curve, equation 2 is iterated through for various effect levels resulting in sets of effects and their associated predicted mixture concentration which are then plotted to produce a graph of the effect prediction.”

Row | SMILES | Modulation of the REFmix effect (in words) [1] | Observed modulation [1] | Signs of toxicity (in words) ([2]; ESCREEN) | Signs of estrogenicity (in words) ([2]; ESCREEN) | Estrogenicity when tested alone (in words) [3] | Signs of toxicity (in words) [2] | Signs of estrogenicity: Active at concentration ([2]; ESCREEN) | Concentration at which estrogenic activity seen ([3]; and above) [µM] | Concentration at which suppression of the ESCREEN response to REFmix began [1] | Suppression of the REFmix effect ([1]; at 10 µM) [%] | Suppression of the ESCREEN response to REFmix ([1]; at 100 nM, plateau at that level up to 10 µM) [%]
1 | Clc1ccc(-c2ccccc2Cl)cc1 [PCB #8, 2,4′-dichlorobiphenyl (PCB #8)] | no indication of negative modulation | None | None | None |  |  |  |  |  |  | 
2 | CCCCOC(=O)c1ccccc1C(=O)OCCCC [DBP, Di butyl phthalate] | possible negative modulation | Possible negative |  |  | no estrogenicity | None | Active at 10 µM or higher |  |  |  | 
3 | Cc1cc(C(C)(C)C)c(O)c(C(C)(C)C)c1 [BHT, Butylated hydroxytoluene] | possible negative modulation | Possible negative | None | None |  |  |  |  |  |  | 
4 | COc1ccc(O)c(C(C)(C)C)c1 [BHA, Butylated hydroxyl anisole] | possible negative modulation | Possible negative | None | None |  |  |  |  |  |  | 
5 | Clc1cc(Cl)c(-c2cc(Cl)c(Cl)cc2Cl)cc1Cl [PCB #153, 2,2′,4,4′,5,5′-hexachloro biphenyl (PCB #153)] | no indication of negative modulation | None | None | None |  |  |  |  |  |  | 
6 | CCOC(=O)c1ccccc1C(=O)OCC [DEP, Di ethyl phthalate] | no indication of negative modulation | None | None |  | estrogenic |  | Active at 10 µM or higher | 0.1 to 1 |  |  | 
7 | [Cl][Cd][Cl] [CdCl2, Cadmium chloride] | clear negative modulation; also recorded: showed negative modulation | Clear negative |  | None |  |  |  |  | around 10 nM | 80 | 
8 | Cc1cnc2ccc3c(nc(N)n3C)c2n1 [MeIQx, 2-Amino-3,8-dimethyl imidazo [4,5-f] quinoxaline] | no indication of negative modulation | None | None | None |  |  |  |  |  |  | 
9 | O=[N+]([O-])[O-].O=[N+]([O-])[O-].[Pb+2] [Pb(NO3)2, Lead nitrate] | possible negative modulation | Possible negative | None | None |  |  |  |  |  |  | 
10 | Cn1c(N)nc2ncc(-c3ccccc3)cc21 [PhIP, 2-amino-1-methyl-6-phenylimidazo [4,5-b] pyridine] | possible negative modulation | Possible negative | None | None |  |  |  |  |  |  | 
11 | Clc1ccc(-c2cc(Cl)c(Cl)c(Cl)c2)cc1Cl [PCB #126, 3,3′,4,4′,5-pentachlorobiphenyl (PCB #126)] | clear negative modulation | Clear negative | None |  |  |  | Active at 10 µM or higher |  | 1–10 nM and around 10 nM |  | 50
12 | Clc1cc(Cl)c(-c2cc(Cl)c(Cl)c(Cl)c2Cl)cc1Cl [PCB #180, 2,2′,3,4,4′,5,5′-heptachloro biphenyl (PCB #180)] | no indication of negative modulation | None |  | None |  | None |  |  |  |  | 
